The target in series [1] is Sodium channel protein type 9 subunit alpha (Homo sapiens, UniProt Q15858). Description: Inhibition of Nav1.7 by cell based whole-cell voltage clamp electrophysiology assay.
The target in series [2] is Sodium channel protein type 5 subunit alpha (Homo sapiens, UniProt Q14524). As to the kind of experiment: Inhibition of Nav1.5 by cell based whole-cell voltage clamp electrophysiology assay.
Series [3] addresses Voltage-gated inwardly rectifying potassium channel KCNH2 (Homo sapiens, UniProt Q12809). As to the kind of experiment: Inhibition of human ERG.
Series [4] can be described thus: Solubility of the compound. Type of series: physicochemical.
Series [5] concerns Rattus norvegicus. Description: Dose normalized AUC in Sprague-Dawley rat at 3 umol/kg, iv. The settings on record: in vivo. In kind it is ADME, organism-based.
A short description of series [6]: Volume of distribution at steady state in Sprague-Dawley rat at 3 umol/kg, iv. Type of series: ADME, organism-based. The settings on record: in vivo, read-out: Vdss.
The nature of series [7]: Terminal half life in Sprague-Dawley rat at 3 umol/kg, iv. The settings on record: in vivo, read-out: beta t1/2 (converted). Type of series: ADME, organism-based.
Series [8] in a line: Clearance in Sprague-Dawley rat at 3 umol/kg, iv. Type of series: ADME, organism-based. To be noted: in vivo.
The subject of series [9] is Rattus norvegicus. Description: Dose normalized AUC in Sprague-Dawley rat at 10 umol/kg, po. In kind it is ADME, organism-based. To be noted: in vivo.
Series [10] can be described thus: Cmax in Sprague-Dawley rat at 10 umol/kg, po. In kind it is ADME, organism-based. Also noted: dose 10 umol/kg, route oral. To be noted: in vivo.
The nature of series [11]: Tmax in Sprague-Dawley rat at 10 umol/kg, po. In kind it is ADME, organism-based. The settings on record: in vivo.
Series [12] in a line: Oral bioavailability in Sprague-Dawley rat at 10 umol/kg. Type of series: ADME, organism-based. To be noted: in vivo.
Series [13] can be described thus: Intrinsic clearance in rat liver microsomes. Type of series: ADME, Microsome.
A short description of series [14]: Intrinsic clearance in human liver microsomes. In kind it is ADME, Microsome. (In general: Microsomes from liver hold many membrane-bound enzymes, among them those of drug oxidation.)
Series [15] can be described thus: Half life in Sprague-Dawley rat at 10 umol/kg, po. In kind it is ADME, organism-based. To be noted: in vivo.

Each structure is given as a SMILES string. Converted amounts (≈) assume the structure as drawn. Where only a bound is given, the exact number is not on record here.

The values below come from ChEMBL document CHEMBL1795246, “Phenyl isoxazole voltage-gated sodium channel blockers: structure and activity relationship” (Bioorg Med Chem Lett, 2011).

Sequence of Sodium channel protein type 5 subunit alpha (Q14524 whole entry): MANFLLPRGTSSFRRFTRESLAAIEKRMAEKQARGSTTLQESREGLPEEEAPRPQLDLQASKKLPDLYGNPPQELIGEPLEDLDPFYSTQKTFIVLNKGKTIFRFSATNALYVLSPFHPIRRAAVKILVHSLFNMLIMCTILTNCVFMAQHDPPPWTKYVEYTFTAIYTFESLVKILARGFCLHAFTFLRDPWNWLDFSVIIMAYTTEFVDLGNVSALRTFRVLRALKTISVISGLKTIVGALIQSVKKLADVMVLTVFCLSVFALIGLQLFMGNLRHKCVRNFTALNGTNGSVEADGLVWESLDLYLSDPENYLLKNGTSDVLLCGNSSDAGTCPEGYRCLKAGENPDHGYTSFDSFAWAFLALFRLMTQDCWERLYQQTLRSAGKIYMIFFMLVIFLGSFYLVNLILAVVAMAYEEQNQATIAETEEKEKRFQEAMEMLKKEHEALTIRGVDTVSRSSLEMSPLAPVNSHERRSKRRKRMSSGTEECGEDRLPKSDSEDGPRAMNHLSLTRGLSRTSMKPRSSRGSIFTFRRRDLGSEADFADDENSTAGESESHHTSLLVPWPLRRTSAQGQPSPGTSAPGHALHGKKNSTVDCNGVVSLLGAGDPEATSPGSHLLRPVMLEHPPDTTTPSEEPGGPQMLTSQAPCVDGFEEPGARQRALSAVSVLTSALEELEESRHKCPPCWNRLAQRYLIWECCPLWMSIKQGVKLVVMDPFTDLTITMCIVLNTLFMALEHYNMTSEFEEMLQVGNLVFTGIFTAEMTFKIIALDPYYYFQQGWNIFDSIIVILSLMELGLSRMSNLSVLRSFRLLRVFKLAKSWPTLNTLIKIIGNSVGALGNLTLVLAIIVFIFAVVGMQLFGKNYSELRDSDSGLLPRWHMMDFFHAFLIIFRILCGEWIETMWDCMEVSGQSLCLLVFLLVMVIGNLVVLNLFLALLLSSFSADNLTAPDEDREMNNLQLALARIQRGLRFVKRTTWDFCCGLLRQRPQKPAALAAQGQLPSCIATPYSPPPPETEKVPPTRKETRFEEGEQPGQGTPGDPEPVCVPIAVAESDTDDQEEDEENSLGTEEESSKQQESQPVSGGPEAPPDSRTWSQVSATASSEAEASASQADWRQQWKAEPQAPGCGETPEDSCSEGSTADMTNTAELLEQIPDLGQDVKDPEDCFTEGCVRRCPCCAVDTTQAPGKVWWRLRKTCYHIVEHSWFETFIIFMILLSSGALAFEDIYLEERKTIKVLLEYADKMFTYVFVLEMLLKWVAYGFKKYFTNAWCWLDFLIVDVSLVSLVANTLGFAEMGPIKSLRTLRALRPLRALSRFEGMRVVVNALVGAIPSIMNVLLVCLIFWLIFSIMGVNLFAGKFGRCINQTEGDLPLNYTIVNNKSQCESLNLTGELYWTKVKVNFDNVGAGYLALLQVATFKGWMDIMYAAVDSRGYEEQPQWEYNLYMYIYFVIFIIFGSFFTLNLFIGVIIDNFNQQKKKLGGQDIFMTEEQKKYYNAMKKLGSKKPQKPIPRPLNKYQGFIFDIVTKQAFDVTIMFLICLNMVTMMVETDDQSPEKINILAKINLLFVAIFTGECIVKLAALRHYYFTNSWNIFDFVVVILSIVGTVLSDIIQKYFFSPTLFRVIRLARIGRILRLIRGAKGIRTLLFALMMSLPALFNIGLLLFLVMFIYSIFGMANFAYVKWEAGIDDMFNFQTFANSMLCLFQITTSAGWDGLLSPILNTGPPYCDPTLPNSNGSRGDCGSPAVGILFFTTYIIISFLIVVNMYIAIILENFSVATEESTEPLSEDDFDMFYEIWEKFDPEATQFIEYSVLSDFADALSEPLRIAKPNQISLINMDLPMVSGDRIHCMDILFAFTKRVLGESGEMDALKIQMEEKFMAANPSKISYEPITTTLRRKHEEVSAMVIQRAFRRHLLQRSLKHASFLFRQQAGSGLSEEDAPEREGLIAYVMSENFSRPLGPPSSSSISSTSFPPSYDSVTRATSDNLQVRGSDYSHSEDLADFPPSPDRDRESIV
Sequence of Sodium channel protein type 9 subunit alpha (Q15858 whole entry): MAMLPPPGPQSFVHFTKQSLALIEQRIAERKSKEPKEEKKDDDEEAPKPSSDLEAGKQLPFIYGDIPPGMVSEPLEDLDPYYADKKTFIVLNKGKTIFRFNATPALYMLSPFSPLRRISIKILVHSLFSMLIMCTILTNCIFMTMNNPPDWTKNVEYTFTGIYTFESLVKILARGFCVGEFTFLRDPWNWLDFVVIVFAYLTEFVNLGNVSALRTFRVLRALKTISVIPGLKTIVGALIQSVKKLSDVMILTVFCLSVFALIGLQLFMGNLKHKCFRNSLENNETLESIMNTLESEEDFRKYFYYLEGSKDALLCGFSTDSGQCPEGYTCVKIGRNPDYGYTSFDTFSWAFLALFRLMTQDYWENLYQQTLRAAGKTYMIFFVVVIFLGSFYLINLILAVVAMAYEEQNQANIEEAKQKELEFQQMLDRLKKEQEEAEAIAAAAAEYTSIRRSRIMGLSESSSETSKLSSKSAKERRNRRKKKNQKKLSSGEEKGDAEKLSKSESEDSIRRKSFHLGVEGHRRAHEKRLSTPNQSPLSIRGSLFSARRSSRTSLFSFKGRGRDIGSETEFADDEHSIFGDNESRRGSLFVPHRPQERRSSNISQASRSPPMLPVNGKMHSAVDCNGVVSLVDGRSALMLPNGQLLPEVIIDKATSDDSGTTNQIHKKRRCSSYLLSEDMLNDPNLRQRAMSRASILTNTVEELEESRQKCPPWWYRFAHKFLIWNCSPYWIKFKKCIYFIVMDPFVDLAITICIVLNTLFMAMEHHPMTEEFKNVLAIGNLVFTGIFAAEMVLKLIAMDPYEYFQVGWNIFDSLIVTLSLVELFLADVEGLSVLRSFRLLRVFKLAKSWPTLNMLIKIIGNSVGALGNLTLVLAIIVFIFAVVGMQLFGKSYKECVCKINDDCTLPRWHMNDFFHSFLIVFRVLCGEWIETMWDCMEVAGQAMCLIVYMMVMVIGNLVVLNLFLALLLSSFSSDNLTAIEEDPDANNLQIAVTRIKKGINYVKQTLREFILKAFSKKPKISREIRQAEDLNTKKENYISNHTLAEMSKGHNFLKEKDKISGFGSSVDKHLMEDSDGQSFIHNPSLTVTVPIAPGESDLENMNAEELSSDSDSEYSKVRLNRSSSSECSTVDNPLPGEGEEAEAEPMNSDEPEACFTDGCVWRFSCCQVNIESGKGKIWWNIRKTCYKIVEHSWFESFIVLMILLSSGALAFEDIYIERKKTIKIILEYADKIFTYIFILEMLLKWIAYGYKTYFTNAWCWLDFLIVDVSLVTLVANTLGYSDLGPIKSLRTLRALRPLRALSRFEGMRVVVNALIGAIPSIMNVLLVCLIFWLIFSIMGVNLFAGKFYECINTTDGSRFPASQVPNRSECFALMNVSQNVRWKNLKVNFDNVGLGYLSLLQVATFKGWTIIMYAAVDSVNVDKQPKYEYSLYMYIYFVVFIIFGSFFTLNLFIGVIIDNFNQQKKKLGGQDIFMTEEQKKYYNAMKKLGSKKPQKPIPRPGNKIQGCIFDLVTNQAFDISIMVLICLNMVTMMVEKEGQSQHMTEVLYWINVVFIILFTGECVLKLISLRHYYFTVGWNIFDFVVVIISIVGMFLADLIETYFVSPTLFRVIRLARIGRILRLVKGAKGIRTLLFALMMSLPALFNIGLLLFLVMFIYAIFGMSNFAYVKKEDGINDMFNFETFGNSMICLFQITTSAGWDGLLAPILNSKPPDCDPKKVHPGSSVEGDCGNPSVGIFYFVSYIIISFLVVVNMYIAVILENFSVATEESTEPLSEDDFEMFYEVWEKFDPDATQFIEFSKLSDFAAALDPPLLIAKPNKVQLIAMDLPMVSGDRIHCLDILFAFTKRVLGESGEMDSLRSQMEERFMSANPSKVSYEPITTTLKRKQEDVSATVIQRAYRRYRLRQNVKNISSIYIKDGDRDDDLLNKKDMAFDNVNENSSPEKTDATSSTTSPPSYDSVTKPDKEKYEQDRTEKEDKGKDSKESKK
Sequence of Voltage-gated inwardly rectifying potassium channel KCNH2 (Q12809 whole entry): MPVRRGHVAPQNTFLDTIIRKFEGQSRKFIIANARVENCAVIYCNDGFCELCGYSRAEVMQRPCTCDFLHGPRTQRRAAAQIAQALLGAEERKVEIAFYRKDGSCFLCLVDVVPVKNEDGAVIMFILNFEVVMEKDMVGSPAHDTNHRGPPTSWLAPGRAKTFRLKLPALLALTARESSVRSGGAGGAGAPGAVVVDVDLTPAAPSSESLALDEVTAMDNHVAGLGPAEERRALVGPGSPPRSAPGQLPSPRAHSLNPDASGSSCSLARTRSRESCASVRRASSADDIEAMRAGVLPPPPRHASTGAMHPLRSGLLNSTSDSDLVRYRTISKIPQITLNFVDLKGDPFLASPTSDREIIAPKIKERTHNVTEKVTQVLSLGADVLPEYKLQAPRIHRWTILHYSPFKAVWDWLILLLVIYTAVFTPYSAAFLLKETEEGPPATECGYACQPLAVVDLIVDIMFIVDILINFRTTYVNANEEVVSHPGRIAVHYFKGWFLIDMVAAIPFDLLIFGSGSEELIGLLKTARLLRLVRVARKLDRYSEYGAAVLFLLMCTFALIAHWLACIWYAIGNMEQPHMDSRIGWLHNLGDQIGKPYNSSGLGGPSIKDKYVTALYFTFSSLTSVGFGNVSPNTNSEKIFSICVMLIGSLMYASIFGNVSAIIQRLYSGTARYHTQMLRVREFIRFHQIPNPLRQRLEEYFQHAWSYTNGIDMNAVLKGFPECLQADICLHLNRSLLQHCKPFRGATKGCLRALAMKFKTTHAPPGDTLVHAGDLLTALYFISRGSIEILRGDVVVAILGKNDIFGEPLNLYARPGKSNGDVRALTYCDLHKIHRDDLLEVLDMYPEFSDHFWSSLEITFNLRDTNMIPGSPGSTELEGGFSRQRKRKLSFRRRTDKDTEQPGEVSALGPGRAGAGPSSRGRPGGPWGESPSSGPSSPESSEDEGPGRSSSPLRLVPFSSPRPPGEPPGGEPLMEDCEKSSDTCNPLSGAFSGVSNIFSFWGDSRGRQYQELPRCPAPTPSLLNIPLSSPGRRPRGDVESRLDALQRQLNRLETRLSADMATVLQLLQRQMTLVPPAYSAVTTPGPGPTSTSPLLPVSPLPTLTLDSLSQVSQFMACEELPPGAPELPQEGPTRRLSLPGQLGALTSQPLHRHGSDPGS

One may read the IC50 as the concentration at which inhibition is half-maximal. A lower IC50 goes with greater potency in that assay. Broadly, the solubility is the concentration that dissolves in the medium under given conditions. High values mean much dissolved substance, low ones little dissolved substance. What is called clearance is the volume of plasma or blood freed of the substance per unit of time. Higher therefore signals efficient removal. As a reminder, the Cmax is the maximum level reached in the sampled fluid or tissue. By Tmax is commonly meant the time at which the peak concentration occurs. A word on the bioavailability: it is the share of a dose that reaches the circulation, judged against a reference dose that is usually intravenous. A lower bioavailability goes with poor availability. Take `Cc1onc(-c2c(Cl)cccc2Cl)c1NC(=O)OCc1c(F)cccc1Cl`: the IC50 was 28.2 nM in [1], 5500 nM in series [2] and above 26300 nM in series [3]. For the same molecule, in series [4], the solubility is below 1 µM. In addition, the AUC/dose in series [5] came to 0.73 kg·h/L; in series [9] it was 0.001 kg·h/L. Moreover, the Vd in series [6] came to 3 L/kg. The half-life in series [7] was 84 min. The same molecule yielded a clearance in series [8] of 45 mL/min/kg. Further, the peak level in series [10] (Cmax) was 7 nM. Besides, the Tmax in series [11] was found to be 19.8 min. Also, in series [12], the bioavailability is 0.3%.
Consider `Cc1onc(-c2c(Cl)cccc2Cl)c1NC(=O)OCc1ccccc1Cl`, for which the IC50 is 24 nM in [1] and 8710 nM in series [2].
With `Cc1onc(-c2c(Cl)cccc2Cl)c1NC(=O)OCc1cc(Cl)ccc1Cl`, the IC50 was 138 nM in series [1] and 2630 nM in [2].
The corresponding values for `Cc1onc(-c2c(Cl)cccc2Cl)c1NC(=O)OCc1cccc(N(C)C)c1` are 151 nM and above 25700 nM.
Turning to `Cc1onc(-c2c(Cl)cccc2Cl)c1NC(=O)OCc1ccc(OC(C)C)nc1`, the IC50 in series [1] is 22.9 nM; in series [2], 8710 nM.
On to `Cc1onc(-c2c(Cl)cccc2Cl)c1NC(=O)OCc1ccc(OC2CCCC2)nc1`, for which the IC50 in [1] is 28.8 nM; in [2] it was 1350 nM.
`Cc1onc(-c2c(Cl)cccc2Cl)c1N(C)C(=O)OCc1ccc(OC(C)C)nc1`: the IC50 is 224 nM in series [1] and above 28800 nM in series [2].
`Cc1onc(-c2c(Cl)cccc2Cl)c1N(C)C(=O)OCc1c(F)cccc1Cl`: the half-maximal inhibitory concentration (IC50) in series [1] is 302 nM; in [2] it was above 33100 nM.
Turning to `CCc1onc(-c2c(Cl)cccc2Cl)c1NC(=O)OCc1c(F)cccc1Cl`, the IC50 is 9.33 nM in series [1] and 7240 nM in series [2].
For the molecule `COCc1onc(-c2c(Cl)cccc2Cl)c1NC(=O)OCc1ccccc1Cl`, the IC50 in [1] was 331 nM; in [2] it was above 28200 nM.
Consider `O=C(Nc1conc1-c1c(Cl)cccc1Cl)OCc1c(F)cccc1Cl`, for which the IC50 in series [1] was 12600 nM.
`Cc1onc(-c2c(F)cccc2Cl)c1NC(=O)OCc1c(F)cccc1Cl`: the 50% inhibitory concentration (IC50) in [1] was 72.4 nM; in [2], above 15800 nM.
Take `Cc1cccc(C)c1-c1noc(C)c1NC(=O)OCc1c(F)cccc1Cl`: the IC50 was 10.5 nM in series [1] and 7760 nM in series [2].
In the case of `Cc1onc(-c2c(Cl)cccc2Cl)c1NC(=O)NCc1c(F)cccc1Cl`, the IC50 was 162 nM in [1] and 8510 nM in series [2].
Consider `Cc1cccc(C)c1-c1noc(C)c1NC(=O)NCc1c(F)cccc1Cl`, for which the figures for the IC50 in series [1] and in [2] were 38 nM and above 10500 nM, respectively.
Turning to `Cc1onc(-c2c(Cl)cccc2Cl)c1N(C)C(=O)NCc1ccc(OC2CCOCC2)nc1`, the IC50 in series [1] was 170 nM; in [2], 5890 nM.
The corresponding values for `Cc1onc(-c2ccccc2Cl)c1N(C)C(=O)NCc1ccc(OC2CCOCC2)nc1` are 3630 nM and above 33100 nM.
As to `Cc1cccc(C)c1-c1noc(C)c1N(C)C(=O)NCc1ccc(OC2CCOCC2)nc1`, the IC50 in series [1] is 4470 nM; in series [2] it was above 33100 nM.
The corresponding values for `Cc1cccc(C)c1-c1noc(C)c1NC(=O)NCc1ccc(OC(C)C)nc1` are 209 nM and 20000 nM.
Turning to `Cc1onc(-c2c(Cl)cccc2Cl)c1NC(=O)NCc1ccc(-n2cccn2)cc1`, the IC50 was 263 nM in series [1] and above 33100 nM in series [2].
Turning to `Cc1cccc(C)c1-c1noc(C)c1NC(=O)NCc1ccc(-n2cccn2)cc1`, the IC50 was 1170 nM in [1] and above 33100 nM in [2].
The corresponding values for `Cc1onc(-c2c(Cl)cncc2Cl)c1NC(=O)NCc1ccc(OC(C)C)nc1` are 12600 nM and above 33100 nM.
As for `Cc1onc(-c2c(Cl)cccc2Cl)c1CC(=O)NCc1ccc(OC(C)C)nc1`, the IC50 in series [1] is 126 nM; in series [2], 4680 nM.
As a reminder, the microsomal CLint is the rate of metabolic loss divided by the concentration. Lower therefore signals slow turnover. Consider `Cc1onc(-c2c(Cl)cccc2Cl)c1CC(=O)NCc1ccc(OCC(F)(F)F)nc1`, for which the IC50 in series [1] is 178 nM; in series [2], above 33100 nM; in series [3], above 26300 nM. In addition, the solubility in series [4] came to 36 µM (≈ 17.1 µg/mL). In addition, the microsomal CLint in series [13] amounted to 64 µL/min/mg; in series [14], 116 µL/min/mg. Besides, the results for the AUC/dose in series [5] and in series [9] were 0.46 kg·h/L and 0.12 kg·h/L, respectively. Further, the Vd in series [6] was 1.6 L/kg. For the same molecule, the half-life in series [7] is 36 min; in series [15], 228 min. This molecule also returned a clearance in [8] of 36 mL/min/kg. This molecule also displayed a Cmax in [10] of 400 nM. The Tmax in series [11] came to 18 min. In series [12], this molecule had a bioavailability of 19%.
With `Cc1cccc(C)c1-c1noc(C)c1CC(=O)NCc1ccc(OCC(F)(F)F)nc1`, the IC50 in [1] was 1230 nM; in series [2], above 33100 nM.
As to `Cc1onc(-c2c(Cl)cccc2Cl)c1CC(=O)NCc1ccc(-n2cccn2)cc1`, the figures for the IC50 in series [1] and in series [2] were 851 nM and above 33100 nM, respectively.
Turning to `Cc1cccc(C)c1-c1noc(C)c1CC(=O)NCc1cccc(OCCOCC(F)(F)F)n1`, the IC50 in series [1] is 58.9 nM; in series [2], 12000 nM.
